This assay deals with G-CSF cytokine receptor (JAK1/JAK2). Put plainly: Human whole blood, G-CSF-induced pSTAT3, granulocytes. It is filed as cell-based.

Each structure is given as a SMILES string. Read-outs that look alike come from different tables or passages of the source.

By IC50 is commonly meant the concentration needed to halve the response being measured.

Method: Blood was warmed to 37°C prior to use.
Then, 5 µL of PBS or cytokine was added to each well (5 µL/well; final, 10 U/mL EPO, 100 ng/mL G‐CSF, 10 ng/mL GM‐CSF, 5000 U/mL IFNα, 100 ng/mL IFNγ, 50 ng/mL IL‐2, 50 ng/mL IL‐3, 5 ng/mL IL‐4, 50 ng/mL IL‐6, 30 ng/mL IL‐7, 30 ng/mL IL‐10, 30 ng/mL IL‐12, 30 ng/mL IL‐13, 30 ng/mL IL‐15, 50 ng/mL IL‐21, 25 ng/mL IL‐23, 1000 ng/mL IL‐27) and incubated for 15 minutes. […]
The lymphocyte population was gated for pSTAT histogram analysis for IFNα‐, IL‐2‐, IL‐3‐, IL‐4‐, IL‐7‐, IL‐10‐, IL‐12‐, IL‐15‐, IL‐21‐, IL‐23‐, and IL‐27‐treated samples; granulocyte population for G‐CSF‐treated samples; CD14^+ cells for GM‐CSF‐, IFNγ‐, and TPO‐treated samples; CD3^+ cells and CD14^+ cells for IL‐6‐treated samples; CD14^+ cells and CD19^+ cells for IL‐13‐treated samples; all events (entire populations) for EPO‐treated cells. Background fluorescence was defined using unstimulated cells and a gate was placed at the foot of the peak to include ~0.5% gated population.
Histogram statistical analysis was performed using FACSDiva version 8.0.1 (BD Biosciences). Relative fluorescence unit (RFU), which measures the level of pSTAT, was calculated by multiplying the percent positive population and its mean fluorescence. […]
Inhibition curves and IC50 values were determined using Prism software (Version 7, GraphPad).

Take `CC[C@@H]1CN(C(=O)NCC(F)(F)F)C[C@@H]1c1cnc2cnc3[nH]ccc3n12` [Upadacitinib]: the IC50 by setting is: (read-out: IC50, G-CSF, pSTAT3) 78 nM; (read-out: IC50,u, G-CSF, pSTAT3) 38 nM.

The values above are taken from PMC6857076 (Pharmacology Research & Perspectives, 2019).
